Experimental data taken from PMC10484922, “Discovery of a selective and biologically active low-molecular weight antagonist of human interleukin-1β” (Nature Communications, 2023).
Values joined by “and” are separate entries in the source; they are usually repeats but may differ in a detail not shown here. Equal entries are not always repeated. Where two headings read alike, the source gives them in different places.

Columns and labels:
[1] = system: HEK-Blue IL-1β cells stimulated with hIL-1β; experiment: HEK293 reporter gene assay, hIL-1β as trigger; format: cell-based, human; parameters: RGA HEK293, average / RGA HEK293, curve fit: unit not given here; settings: for RGA HEK293, average / RGA HEK293, curve fit: per experiment
[2] = system: normal human dermal fibroblasts stimulated with hIL-1α; experiment: Human fibroblast IL-6 release assay, hIL-1α stimulated; format: cell-based; parameters: IL-1alpha (mean, SD): mean readout (IL-6 release): unit not given here; settings: for Mean OD (OD 450nm) / IL-1alpha (mean, SD): mean readout (IL-6 release): Figure 3c; for Mean OD (OD 450nm): compound 500 nM; for IL-1alpha (mean, SD): mean readout (IL-6 release): compound @ 50uM
Experimental: We used HEK-Blue™ IL-1β cells that respond specifically to IL-1 (# hkb-il1b, InvivoGen). These cells can detect IL-1α and IL-1β, as these cytokines bind to the same receptor, IL-1R1. They express a Seap reporter gene under the control of the IFN-β minimal promoter fused to five NF-kappaB and five AP-1 binding sites. Thirty microliters (300,000 cells/ml) per well of a 384-well plate were plated overnight. Cells were then stimulated with graded concentrations of cytokines (hIL-1α or hIL-1β) in the absence or presence of canakinumab (Ilaris®, ILARI LYVI 150MG 22GLW.012, batch U003 0409)[22], anakinra (Kineret®, 100 mg/0.67 ml injectable solution, Sobi)[23], or compound (S)-2 (compounds were pre-mixed for 1 h with the cytokine prior to addition to cells) and further incubated overnight before assessment of Seap activity.
Normal human dermal fibroblasts (NHDF) from Clonetics^TM (LONZA, Cat # CC-2509 (NHDF-Neo), Lot # 0000234242, used at passage ≤14) were seeded at a density of 5000 cells/well in 100 μL of culture medium using 96-well plates (flat bottom, TCT). Treatment with cytokines/compounds was performed as described above. Cells were incubated for another 6 h and were subsequently spun down (320g/3 min). IL-6 was measured in the supernatant by ELISA (BioLegend, # 430503) or HTRF (Cisbio, #62HIL06PEH).

[3] = system: CHO IL-1R1 reporter cell line stimulated with IL-1β; experiment: NanoBiT reporter assay, CHO IL-1R1 cells, IL-1β driven; format: cell-based; parameters: average: scale not given here; settings: for average: IL-1beta
Experimental: Reporter cell system for NanoBiT assay
CHO IL-36R or CHO IL-1R1 reporter cell lines, prepared internally (Klemens Ka u p ma n n ), based on tagged IL-1RAcP and Myd88 proteins using the NanoBiT complementation system, were seeded at a densi ty of 10’000 cells/well in 30 µL of OptiMEM + 0.1 % FCS medium using 384-well plates (white, TCT), for 24 hours.
Before the treatment, the medium was removed, 20 µL of NanoGlo substrate, (#N2012, Pr o me g a ) were added to the wells. Following substrate addi ti on, 240 nL of compound were added to the wells using an ECH O dispenser device. Then, 3.76 µL of the ligand IL-36g (Novartis) at 200 ng/mL end concentration or recombinant IL-1b (Novartis) at 500 pg/mL end concentration were added to the mix. Luminescence was measured at 405 nm after 30 min incubation (Pherastar reader). […]

Cc1ccc2c(c1)NC(=O)[C@@]2(c1cn[nH]c1)c1cc(-c2ccc(C(=O)O)cc2C(=O)O)ccc1O [Compound (S)-2]
reporter activity induced by hIL-1β [1]: efficiently inhibited the reporter activity induced by hIL-1β
RGA HEK293, average ([1]; 3.125 uM): 29.4705 and 28.9635 and 25.1151 and 32.9049 and 27.4138 and 39.0499 and 38.2996 and 37.0235
RGA HEK293, curve fit ([1]; 3.125 uM): 30.4654 and 27.1823 and 20.8299 and 28.629 and 26.4966 and 33.5898 and 33.5814 and 32.8647
RGA HEK293, average ([1]; 6.25 uM): 54.0943 and 50.2167 and 45.7315 and 52.6564 and 46.7509 and 54.9517 and 53.8737 and 52.9197
RGA HEK293, curve fit ([1]; 6.25 uM): 53.4932 and 49.1303 and 45.443 and 53.6627 and 46.4685 and 55.6955 and 53.7771 and 53.2389
RGA HEK293, average ([1]; 12.5 uM): 72.3524 and 70.9823 and 68.0128 and 77.9349 and 67.4822 and 74.7182 and 71.0369 and 70.438
RGA HEK293, curve fit ([1]; 12.5 uM): 72.9412 and 71.3657 and 68.2903 and 76.9195 and 67.593 and 75.1363 and 72.2128 and 71.5012
RGA HEK293, average ([1]; 25 uM): 87.2975 and 85.2654 and 82.5363 and 87.9606 and 82.8729 and 86.3527 and 84.3067 and 83.9822
RGA HEK293, curve fit ([1]; 25 uM): 85.8483 and 86.5666 and 83.9461 and 90.5811 and 83.387 and 87.7879 and 85.1743 and 84.4134
RGA HEK293, average ([1]; 50 uM): 94.5457 and 94.2398 and 91.9589 and 95.03 and 93.0282 and 93.3172 and 89.9086 and 89.6999
RGA HEK293, curve fit ([1]; 50 uM): 93.0784 and 94.3616 and 92.5512 and 96.5403 and 92.3805 and 94.467 and 92.6851 and 92.0672
RGA HEK293, average ([1]; 100 uM): 97.772 and 97.6887 and 95.147 and 97.9006 and 96.9482 and 94.6055 and 95.59 and 95.4988
RGA HEK293, curve fit ([1]; 100 uM): 96.7406 and 97.7627 and 96.7045 and 98.7877 and 96.7132 and 97.5984 and 96.5496 and 96.1302
IC50 ([1]; Homo sapiens, hIL-1β, read-out: RGA HEK293 IC50): 5.3 ± 0.3 µM
IC50 ([1]; Homo sapiens, source data, read-out: RGA HEK293 IC50, individual experiments): 4.15 µM
IC50 ([1]; source data, read-out: RGA HEK293 IC50, individual experiments): 6.4 µM and 5.37 µM and 5.67 µM and 6.98 µM and 4.84 µM and 5.05 µM and 4.72 µM
effect on hIL-1α driven IL-6 release [2]: had no effect on hIL-1α driven IL-6 release
Mean OD (OD 450nm) ([2]; hu IL-1A 0 pg/mL): 0.031
Mean OD (OD 450nm) ([2]; hu IL-1A 40 pg/mL): 0.372
Mean OD (OD 450nm) ([2]; hu IL-1A 80 pg/mL): 0.573
Mean OD (OD 450nm) ([2]; hu IL-1A 120 pg/mL): 0.693
Mean OD (OD 450nm) ([2]; hu IL-1A 160 pg/mL): 0.736
Mean OD (OD 450nm) ([2]; hu IL-1A 200 pg/mL): 0.751
IL-1alpha (mean, SD): mean readout (IL-6 release) ([2]; hu IL-1a 0 pg/mL): 0
IL-1alpha (mean, SD): mean readout (IL-6 release) ([2]; hu IL-1a 40 pg/mL): 1994.8
IL-1alpha (mean, SD): mean readout (IL-6 release) ([2]; hu IL-1a 80 pg/mL): 3486.9
IL-1alpha (mean, SD): mean readout (IL-6 release) ([2]; hu IL-1a 120 pg/mL): 4374.4
IL-1alpha (mean, SD): mean readout (IL-6 release) ([2]; hu IL-1a 160 pg/mL): 4691.2
IL-1alpha (mean, SD): mean readout (IL-6 release) ([2]; hu IL-1a 200 pg/mL): 4802.2
IL-1β-driven NanoBiT reporter activity [3]: inhibited the reporter activity driven
average ([3]; EXP1, conc 0.00610352 uM): -2.539
average ([3]; EXP1, conc 0.012207 uM): 1.596
average ([3]; EXP1, conc 0.0244141 uM): -3.451
average ([3]; EXP1, conc 0.0488281 uM): 3.112
average ([3]; EXP1, conc 0.0976562 uM): 2.615
average ([3]; EXP1, conc 0.195312 uM): -0.4746
average ([3]; EXP1, conc 0.390625 uM): 9.543
average ([3]; EXP1, conc 0.78125 uM): 7.593
average ([3]; EXP1, conc 1.5625 uM): 13.469
average ([3]; EXP1, conc 3.125 uM): 26.7566
average ([3]; EXP1, conc 6.25 uM): 37.1219
average ([3]; EXP1, conc 12.5 uM): 46.91
average ([3]; EXP1, conc 25 uM): 52.2595
average ([3]; EXP1, conc 50 uM): 56.8016
average ([3]; EXP1, conc 100 uM): 68.8694
average ([3]; EXP2, conc 0.00610352 uM): -2.716
average ([3]; EXP2, conc 0.012207 uM): 3.9057
average ([3]; EXP2, conc 0.0244141 uM): -3.335
average ([3]; EXP2, conc 0.0488281 uM): 6.501
average ([3]; EXP2, conc 0.0976562 uM): 5.016
average ([3]; EXP2, conc 0.195312 uM): 1.522
average ([3]; EXP2, conc 0.390625 uM): 11.9124
average ([3]; EXP2, conc 0.78125 uM): 10.8854
average ([3]; EXP2, conc 1.5625 uM): 17.5198
average ([3]; EXP2, conc 3.125 uM): 31.5581
average ([3]; EXP2, conc 6.25 uM): 41.289
average ([3]; EXP2, conc 12.5 uM): 51.7241
average ([3]; EXP2, conc 25 uM): 56.0031
average ([3]; EXP2, conc 50 uM): 59.3287
average ([3]; EXP2, conc 100 uM): 71.2739
average ([3]; EXP3, conc 0.00610352 uM): 1.19
average ([3]; EXP3, conc 0.012207 uM): 3.77
average ([3]; EXP3, conc 0.0244141 uM): 3.912
average ([3]; EXP3, conc 0.0488281 uM): 4.68
average ([3]; EXP3, conc 0.0976562 uM): -1.021
average ([3]; EXP3, conc 0.195312 uM): 3.354
average ([3]; EXP3, conc 0.390625 uM): 4.389
average ([3]; EXP3, conc 0.78125 uM): 9.349
average ([3]; EXP3, conc 1.5625 uM): 13.3994
average ([3]; EXP3, conc 3.125 uM): 22.0107
average ([3]; EXP3, conc 6.25 uM): 30.3621
average ([3]; EXP3, conc 12.5 uM): 43.476
average ([3]; EXP3, conc 25 uM): 49.8685
average ([3]; EXP3, conc 50 uM): 57.8931
average ([3]; EXP3, conc 100 uM): 64.0514
